Assay results as given in patent publication US20200216416A1, “QUINOLINE COMPOUNDS AS INHIBITORS OF TAM AND MET KINASES” (Array BioPharma Inc., priority 2019, published 2020).

Legend:
[1] = biological target: T1, His-tagged recombinant human MER cytoplasmic domain (Homo sapiens, UniProt Q12866); assay: MER Enzyme Assay (LanthaScreen Eu Kinase Binding); conditions: averaged IC50; MER 5 nM; 60-minute incubation at 22° C.; TR-FRET
T1 construct: His-tagged recombinant human MER cytoplasmic domain
T1 sequence (Q12866 527-999 limits assumed): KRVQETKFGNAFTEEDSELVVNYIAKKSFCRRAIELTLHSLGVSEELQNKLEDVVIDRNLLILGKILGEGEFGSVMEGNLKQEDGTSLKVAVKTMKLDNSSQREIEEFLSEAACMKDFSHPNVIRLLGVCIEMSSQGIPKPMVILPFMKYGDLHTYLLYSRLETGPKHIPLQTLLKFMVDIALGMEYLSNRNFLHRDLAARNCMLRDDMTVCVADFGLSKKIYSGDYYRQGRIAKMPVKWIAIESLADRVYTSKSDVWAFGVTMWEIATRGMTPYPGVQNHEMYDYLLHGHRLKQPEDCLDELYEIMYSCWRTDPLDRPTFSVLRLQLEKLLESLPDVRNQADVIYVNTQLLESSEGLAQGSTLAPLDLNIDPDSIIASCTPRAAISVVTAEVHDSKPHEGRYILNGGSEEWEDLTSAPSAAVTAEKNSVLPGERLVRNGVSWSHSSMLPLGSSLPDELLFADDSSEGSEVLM
Protocol: (§1) Compounds disclosed herein were screened for their ability to inhibit […] kinase using Invitrogen's LanthaScreen™Eu Kinase Binding technology. His-tagged recombinant human MER cytoplasmic domain (5 nM) was incubated with 20 nM Alexa-Fluor® Tracer 236 (PR9078A), 2 nM biotinylated anti-His (Cat. No. M4408), and 2 nM europium-labeled Streptavidin (Cat. No. PV5899) along with test compound in a buffer consisting of 25 mM HEPES, pH 7.4, 10 mM MgCl 2, 0.01% Triton X-100, and 2% DMSO. Compounds were typically prepared in a threefold serial dilution in DMSO and added to the assay to give the appropriate final concentration. After a 60-minute incubation at 22° C., the reaction was measured using a PerkinElmer EnVision multimode plate reader via TR-FRET dual wavelength detection, and the percent of control (POC) was calculated using a ratiometric emission factor. […] The POC values are fit to a 4 parameter logistic curve and the IC50 value is point where the curve crosses 50 POC.

[2] = biological target: T2, GST-tagged recombinant human TYRO3 kinase domain (Homo sapiens, UniProt Q06418); assay: TYRO3 Enzyme Assay (LanthaScreen Eu Kinase Binding); conditions: averaged IC50; TYRO3 5 nM; 60-minute incubation at 22° C.; TR-FRET
T2 construct: GST-tagged recombinant human TYRO3 kinase domain; purchased Carna PR7480A
T2 sequence (Q06418 518-790 limits assumed): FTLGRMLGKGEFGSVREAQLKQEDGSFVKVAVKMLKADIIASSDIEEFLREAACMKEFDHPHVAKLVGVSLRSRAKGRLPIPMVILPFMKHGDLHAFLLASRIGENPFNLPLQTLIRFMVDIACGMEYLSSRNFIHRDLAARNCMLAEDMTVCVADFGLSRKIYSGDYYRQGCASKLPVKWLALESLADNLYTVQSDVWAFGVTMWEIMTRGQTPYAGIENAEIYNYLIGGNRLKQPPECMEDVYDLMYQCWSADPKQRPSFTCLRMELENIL
Protocol: Compounds disclosed herein were screened for their ability to inhibit TYRO3 kinase using Invitrogen's LanthaScreenTM Eu Kinase Binding technology. GST-tagged recombinant human TYRO3 kinase domain from Carna (5 nM; Cat. No. P[…]) was incubated with 20 nM Alexa-Fluor® Tracer 236 (P[…]) and 2 nM Europium-anti-GST (Cat. No. A15116) along with test compound in a buffer consisting of 25 mM HEPES, pH 7.4, 10 mM MgCl2, 0.01% Triton X-100, and 2% DMSO. Compounds are typically prepared in a threefold serial dilution in DMSO and added to the assay to give the appropriate final concentration. After a 60-minute incubation at 22° C., the reaction was measured using a PerkinElmer EnVision multimode plate reader via TR-FRET dual wavelength detection, and the percent of control (POC) calculated using a ratiometric emission factor. […] The POC values were fit to a 4 parameter logistic curve and the IC50 value is point where the curve crosses 50 POC.

[3] = biological target: T3, His-tagged recombinant human AXL cytoplasmic domain (Homo sapiens, UniProt P30530); assay: AXL Enzyme Assay (LanthaScreen Eu Kinase Binding); conditions: averaged IC50; 60-minute incubation at 22° C.; TR-FRET
T3 construct: His-tagged recombinant human AXL cytoplasmic domain
T3 sequence (P30530 473-894 limits assumed): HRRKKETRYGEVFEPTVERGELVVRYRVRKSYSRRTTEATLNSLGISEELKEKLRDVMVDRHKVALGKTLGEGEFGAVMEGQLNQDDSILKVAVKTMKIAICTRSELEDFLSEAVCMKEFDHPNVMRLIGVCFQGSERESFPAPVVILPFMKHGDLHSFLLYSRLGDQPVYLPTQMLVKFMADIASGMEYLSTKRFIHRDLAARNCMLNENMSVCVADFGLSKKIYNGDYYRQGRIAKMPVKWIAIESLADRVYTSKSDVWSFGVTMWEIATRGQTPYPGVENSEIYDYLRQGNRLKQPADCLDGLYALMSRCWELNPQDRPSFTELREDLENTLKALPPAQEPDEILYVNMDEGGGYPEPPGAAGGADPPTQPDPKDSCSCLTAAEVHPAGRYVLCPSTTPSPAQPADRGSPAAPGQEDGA
Protocol: as §1, with “AXL” for “MER”, “domain” for “domain (5 nM)”, “MgCl2,” for “MgCl 2,”

IC50 [1]: 0.019 µM | IC50 [2]: 0.019 µM | IC50 [3]: 0.006 µM
SMILES: COc1ccc2nccc(Oc3ccc(NC(=O)c4cn(C(C)C)cc(-c5ccc(F)cc5)c4=O)nc3)c2c1 [Example 40, 5-(4-fluorophenyl)-1-isopropyl-N-(5-((6-methoxyquinolin-4-yl)oxy)pyridin-2-yl)-4-oxo-1,4-dihydropyridine-3-carboxamide]
